Measurements as given in the supplement of paper PMC10307832.

Tests used:
Assay in all cases: relative viability (nuclei count vs DMSO), 5 days (fraction); higher = more cells survive
[1] = compound: CC1=NC=CC(=C1)C2=CC=C(C=C2)CC(=O)NC3=CC=C(C=C3)C4=CN=CC=C4 [Wnt-C59] + CC(=O)Nc1cccc(-n2c(=O)n(C3CC3)c(=O)c3c(Nc4ccc(I)cc4F)n(C)c(=O)c(C)c32)c1 [Trametinib] (partner 0.02 µM)
Method in brief: (§1)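 Lung cancer cell lines were seeded in 1536-well plates and dosed by pin tool the next day, with either a single drug or a fixed anchor-drug dose combined with five library-drug doses (not always all listed) spaced in √10 steps. Five days later, one step fixed the cells and stained their nuclei (final 0.05% Triton X-100, 1% formaldehyde, 1 ug/ml Hoechst), and nuclei were counted on 4× images. Relative viability is the nuclei count in treated wells divided by the count in vehicle wells, and each value is the median of duplicate plates.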

[2] = compound: CS(=O)(=O)CCNCc1ccc(-c2ccc3ncnc(Nc4ccc(OCc5cccc(F)c5)c(Cl)c4)c3c2)o1 [Lapatinib] + CC(=O)c1c(C)c2cnc(Nc3ccc(N4CCNCC4)cn3)nc2n(C2CCCC2)c1=O [Palbociclib] (partner 0.5 µM)
Method in brief: as §1

[3] = compound: CC1=NC=CC(=C1)C2=CC=C(C=C2)CC(=O)NC3=CC=C(C=C3)C4=CN=CC=C4 [Wnt-C59] + COc1cccc2cc(-c3nc([C@H]4CC[C@H](C(=O)O)CC4)n4ncnc(N)c34)[nH]c12 [OSI-027] (partner 0.5 µM)
Method in brief: as §1

[4] = compound: CC1=NC=CC(=C1)C2=CC=C(C=C2)CC(=O)NC3=CC=C(C=C3)C4=CN=CC=C4 [Wnt-C59] + O=C(c1cc(Cc2n[nH]c(=O)c3ccccc23)ccc1F)N1CCN(C(=O)C2CC2)CC1 [Olaparib] (partner 8 µM)
Method in brief: as §1

Cell Line	relative viability ([1]; first compound 0.001 µM)	relative viability ([1]; first compound 0.01 µM)	relative viability ([1]; first compound 0.03162 µM)	relative viability ([1]; first compound 0.1 µM)	relative viability ([2]; first compound 0.06325 µM)	relative viability ([2]; first compound 0.2 µM)	relative viability ([2]; first compound 0.6325 µM)	relative viability ([2]; first compound 2 µM)	relative viability ([3]; first compound 0.001 µM)	relative viability ([3]; first compound 0.03162 µM)	relative viability ([3]; first compound 0.1 µM)	relative viability ([4]; first compound 0.001 µM)	relative viability ([4]; first compound 0.01 µM)	relative viability ([4]; first compound 0.03162 µM)	relative viability ([4]; first compound 0.1 µM)	relative viability ([2]; first compound 0.02 µM)	relative viability ([3]; first compound 0.01 µM)
NCI-H1793	0.495	0.408	0.385	0.425	0.25	0.258	0.293	0.241	0.189	0.287	0.266	0.779	0.734	1.01	0.841		
NCI-H2085	0.599	0.577	0.58	0.614	0.462	0.474	0.445	0.338	0.837	0.747	0.77	0.795	0.769	0.822	0.744	0.485	0.569
NCI-H2126	0.579	0.532	0.573	0.581	0.349	0.346	0.348	0.319	0.718	0.7	0.682	0.896	0.952	0.88	0.905	0.38	0.655
LCLC-103H	0.716	0.667	0.667	0.713	0.486	0.478	0.533	0.441	0.458	0.527	0.498	0.81	0.737	0.699	0.793	0.445	0.533
NCI-H2347	0.357	0.271	0.318	0.194	0.45	0.456	0.378	0.386	0.365	0.51	0.457	0.554	0.541	0.615	0.593	0.385	0.474
NCI-H1437	0.51	0.562	0.481	0.579	0.297	0.305	0.322	0.294	0.859	0.859	0.911	0.626	0.629	0.62	0.605	0.281	0.927
NCI-H2170	0.923	0.864	1.03	0.974	0.313	0.271	0.277	0.136	0.748	0.872	0.491	0.631	0.568	0.649	0.499	0.376	0.468
ABC-1					0.487		0.533	0.787	0.441	0.435	0.389	1	0.898	0.502	0.846	0.71	0.597
NCI-H596	0.734	0.704	0.879	0.876					0.733	0.952	0.719	0.7	0.664	0.742	0.745		0.499
NCI-H1703												0.507	0.368	0.611	0.322		
A549												0.302	0.321	0.357	0.332		
